Laboratory results taken from PubChem BioAssay AID248 (DTP/NCI, 2004).
Toxic doses and inconclusive results are not listed.

Tested on: L1210 leukemia ip in BDF1 mice, survival T/C
Test: NCI In Vivo Anticancer Drug Screen. Data for tumor model L1210 Leukemia (intraperitoneal) in B6D2F1 (BDF1) mice
Details: endpoint: mean survival time, higher = longer survival
Outline: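 Each compound was tested against a transplantable tumor grown in mice. The endpoint was survival, with treated animals benchmarked against vehicle controls as a simple ratio.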

[1] = dose: 400.0 mg/kg/injection, schedule: Q01DX001 (ip), vehicle: carboxymethylcellulose (CMC)
[2] = dose: 100.0 mg/kg/injection, schedule: Q01DX009 (ip), vehicle: Klucel (hydroxypropylcellulose) (HPC)
[3] = dose: 100.0 mg/kg/injection, schedule: Q04DX003 (ip), vehicle: Klucel (hydroxypropylcellulose) (HPC)
[4] = dose: 200.0 mg/kg/injection, schedule: Q01DX009 (ip), vehicle: Klucel (hydroxypropylcellulose) (HPC)
[5] = dose: 200.0 mg/kg/injection, schedule: Q04DX003 (ip), vehicle: Klucel (hydroxypropylcellulose) (HPC)
[6] = dose: 400.0 mg/kg/injection, schedule: Q01DX009 (ip), vehicle: Klucel (hydroxypropylcellulose) (HPC)
[7] = dose: 400.0 mg/kg/injection, schedule: Q04DX003 (ip), vehicle: Klucel (hydroxypropylcellulose) (HPC)

## Oc1ccc(O)c2c1C1(Cl)C(Cl)=C(Cl)C2(Cl)C1(Cl)Cl
dose: 100.0 mg/kg/injection, schedule: Q04DX003 (ip), vehicle: other
  T/C: 101 % of control
dose: 200.0 mg/kg/injection, schedule: Q04DX003 (ip), vehicle: other
  T/C: 101 % of control
dose: 400.0 mg/kg/injection, schedule: Q04DX003 (ip), vehicle: other
  T/C: 108 % of control

## CC1(C)C[n+]2noc([O-])c2C(C)(C)C1
dose: 0.19 mg/kg/injection, schedule: Q04DX003 (ip), vehicle: alcohol
  T/C: 104 % of control
dose: 0.39 mg/kg/injection, schedule: Q01DX009 (ip), vehicle: alcohol
  T/C: 100 % of control
dose: 0.39 mg/kg/injection, schedule: Q04DX003 (ip), vehicle: alcohol
  T/C: 96 % of control
dose: 0.78 mg/kg/injection, schedule: Q01DX009 (ip), vehicle: alcohol
  T/C: 105 % of control
dose: 0.78 mg/kg/injection, schedule: Q04DX003 (ip), vehicle: alcohol
  T/C: 113 % of control
dose: 1.56 mg/kg/injection, schedule: Q01DX009 (ip), vehicle: alcohol
  T/C: 105 % of control
dose: 1.56 mg/kg/injection, schedule: Q04DX003 (ip), vehicle: alcohol
  T/C: 96 % of control

## NC(N)=N/N=C(/c1ccccc1)c1ccc(O)cc1O
dose: 15.0 mg/kg/injection, schedule: Q01DX Z (ip), vehicle: saline
  T/C: 101 % of control
dose: 30.0 mg/kg/injection, schedule: Q01DX Z (ip), vehicle: saline
  T/C: 92 % of control
dose: 60.0 mg/kg/injection, schedule: Q01DX Z (ip), vehicle: saline
  T/C: 94 % of control
dose: 120.0 mg/kg/injection, schedule: Q01DX Z (ip), vehicle: saline
  T/C: 92 % of control
dose: 120.0 mg/kg/injection, schedule: Q01DX Z (oral), vehicle: saline
  T/C: 101 % of control
dose: 240.0 mg/kg/injection, schedule: Q01DX Z (ip), vehicle: saline
  T/C: 108 % of control
dose: 240.0 mg/kg/injection, schedule: Q01DX Z (oral), vehicle: saline
  T/C: 102 % of control
dose: 480.0 mg/kg/injection, schedule: Q01DX Z (oral), vehicle: saline
  T/C: 101 % of control
dose: 960.0 mg/kg/injection, schedule: Q01DX Z (oral), vehicle: saline
  T/C: 98 % of control

## C#CC1(NC(=S)Nc2cccc(OC)c2)CCCCC1
dose: 100.0 mg/kg/injection, schedule: Q04DX002 (ip), vehicle: Klucel (hydroxypropylcellulose) (HPC)
  T/C: 94 % of control
dose: 200.0 mg/kg/injection, schedule: Q04DX002 (ip), vehicle: Klucel (hydroxypropylcellulose) (HPC)
  T/C: 109 % of control
dose: 400.0 mg/kg/injection, schedule: Q04DX002 (ip), vehicle: Klucel (hydroxypropylcellulose) (HPC)
  T/C: 96 % of control

## O=[N+]([O-])c1ccc2c(c1)S(=O)c1cc([N+](=O)[O-])c(Br)cc1-2 (centres undefined) (tested in a mixture with another compound)
dose: 50.0 mg/kg/injection, schedule: Q04DX002 (ip), vehicle: saline with Tween-80
  T/C: 96 % of control
dose: 100.0 mg/kg/injection, schedule: Q04DX002 (ip), vehicle: saline with Tween-80
  T/C: 96 % of control
dose: 200.0 mg/kg/injection, schedule: Q04DX002 (ip), vehicle: saline with Tween-80
  T/C: 96 % of control

## c1ccc(-c2ccno2)cc1
dose: 6.25 mg/kg/injection, schedule: Q01DX009 (ip), vehicle: saline with Tween-80
  T/C: 98 % of control
dose: 12.5 mg/kg/injection, schedule: Q01DX009 (ip), vehicle: saline with Tween-80
  T/C: 106 % of control
dose: 25.0 mg/kg/injection, schedule: Q01DX009 (ip), vehicle: saline with Tween-80
  T/C: 107 % of control
dose: 75.0 mg/kg/injection, schedule: Q01DX009 (ip), vehicle: saline with Tween-80
  T/C: 90 % of control

## O=C(Nc1ccc([N+](=O)[O-])cc1)N(c1ccccn1)c1ccccn1
dose: 100.0 mg/kg/injection, schedule: Q01DX001 (ip), vehicle: carboxymethylcellulose (CMC)
  T/C: 89 % of control
dose: 200.0 mg/kg/injection, schedule: Q01DX001 (ip), vehicle: carboxymethylcellulose (CMC)
  T/C: 91 % of control
[1]
  T/C: 95 % of control

## CC1=Nc2c(c(C(C)(C)C)c3nc(C)oc3c2C(C)(C)C)C1
dose: 100.0 mg/kg/injection, schedule: Q01DX001 (ip), vehicle: saline with Tween-80
  T/C: 97 % of control
dose: 200.0 mg/kg/injection, schedule: Q01DX001 (ip), vehicle: saline with Tween-80
  T/C: 94 % of control
dose: 400.0 mg/kg/injection, schedule: Q01DX001 (ip), vehicle: saline with Tween-80
  T/C: 94 % of control

## CCCCC(CC)COP(=O)(OCC(CC)CCCC)c1ccccc1 (centres undefined)
dose: 50.0 mg/kg/injection, schedule: Q01DX001 (ip), vehicle: saline
  T/C: 100 % of control
dose: 100.0 mg/kg/injection, schedule: Q01DX001 (ip), vehicle: saline
  T/C: 100 % of control

## Cc1cc(C)c(NC(=O)c2cccc(C(=O)Nc3c(C)cc(C)cc3C)c2)c(C)c1
[2]
  T/C: 102 % of control
[3]
  T/C: 91 % of control
[4]
  T/C: 104 % of control
[5]
  T/C: 88 % of control
[6]
  T/C: 96 % of control
[7]
  T/C: 88 % of control

## COc1cc2c(cc1OC)C1=CC(=O)N3CCCC34OS(=O)OC14CC2 (centres undefined)
[2]
  T/C: 97 % of control
[3]
  T/C: 98 % of control
[4]
  T/C: 100 % of control
[5]
  T/C: 96 % of control
[6]
  T/C: 96 % of control
[7]
  T/C: 96 % of control

## c1nc(SC2CCCC2)c2[nH]cnc2n1
dose: 5.0 mg/kg/injection, schedule: Q01DX Z (ip), vehicle: carboxymethylcellulose (CMC)
  T/C: 106 % of control
dose: 10.0 mg/kg/injection, schedule: Q01DX Z (ip), vehicle: carboxymethylcellulose (CMC)
  T/C: 103 % of control
dose: 10.0 mg/kg/injection, schedule: Q01DX Z (oral), vehicle: carboxymethylcellulose (CMC)
  T/C: 108 % of control
dose: 21.0 mg/kg/injection, schedule: Q01DX Z (ip), vehicle: carboxymethylcellulose (CMC)
  T/C: 112 % of control
dose: 21.0 mg/kg/injection, schedule: Q01DX Z (oral), vehicle: carboxymethylcellulose (CMC)
  T/C: 108 % of control
dose: 25.0 mg/kg/injection, schedule: Q01DX009 (ip), vehicle: carboxymethylcellulose (CMC)
  T/C: 115 % of control
dose: 42.0 mg/kg/injection, schedule: Q01DX Z (ip), vehicle: carboxymethylcellulose (CMC)
  T/C: 112 % of control
dose: 42.0 mg/kg/injection, schedule: Q01DX Z (oral), vehicle: carboxymethylcellulose (CMC)
  T/C: 106 % of control
dose: 42.5 mg/kg/injection, schedule: Q01DX Z (ip), vehicle: carboxymethylcellulose (CMC)
  T/C: 122 % of control
dose: 50.0 mg/kg/injection, schedule: Q01DX009 (ip), vehicle: carboxymethylcellulose (CMC)
  T/C: 119 % of control
dose: 84.0 mg/kg/injection, schedule: Q01DX Z (oral), vehicle: carboxymethylcellulose (CMC)
  T/C: 150 % of control
dose: 85.0 mg/kg/injection, schedule: Q01DX Z (ip), vehicle: carboxymethylcellulose (CMC)
  T/C: 163 % of control
dose: 176.0 mg/kg/injection, schedule: Q01DX001 (ip), vehicle: carboxymethylcellulose (CMC)
  T/C: 98 % of control
dose: 264.0 mg/kg/injection, schedule: Q01DX001 (ip), vehicle: carboxymethylcellulose (CMC)
  T/C: 100 % of control
dose: 340.0 mg/kg/injection, schedule: Q01DX Z (ip), vehicle: carboxymethylcellulose (CMC)
  T/C: 110 % of control
dose: 340.0 mg/kg/injection, schedule: Q01DX Z (oral), vehicle: carboxymethylcellulose (CMC)
  T/C: 152 % of control
[1]
  T/C: 93 % of control

## CS(=O)(=O)OCCCCCCCCOS(C)(=O)=O
dose: 3.0 mg/kg/injection, schedule: Q01DX009 (ip), vehicle: Klucel (hydroxypropylcellulose) (HPC)
  T/C: 100 % of control
dose: 5.0 mg/kg/injection, schedule: Q01DX009 (ip), vehicle: Klucel (hydroxypropylcellulose) (HPC)
  T/C: 102 % of control
dose: 11.0 mg/kg/injection, schedule: Q01DX009 (ip), vehicle: Klucel (hydroxypropylcellulose) (HPC)
  T/C: 118 % of control
dose: 12.5 mg/kg/injection, schedule: Q01DX009 (ip), vehicle: Klucel (hydroxypropylcellulose) (HPC)
  T/C: 108 % of control
dose: 25.0 mg/kg/injection, schedule: Q01DX009 (ip), vehicle: Klucel (hydroxypropylcellulose) (HPC)
  T/C: 114 % of control
dose: 25.0 mg/kg/injection, schedule: Q04DX003 (ip), vehicle: Klucel (hydroxypropylcellulose) (HPC)
  T/C: 112 % of control
dose: 37.5 mg/kg/injection, schedule: Q01DX009 (ip), vehicle: Klucel (hydroxypropylcellulose) (HPC)
  T/C: 163 % of control
dose: 50.0 mg/kg/injection, schedule: Q01DX009 (ip), vehicle: Klucel (hydroxypropylcellulose) (HPC)
  T/C: 93 % of control
dose: 50.0 mg/kg/injection, schedule: Q04DX003 (ip), vehicle: Klucel (hydroxypropylcellulose) (HPC)
  T/C: 116 % of control
[3]
  T/C: 116 % of control

## CC(C)=C(c1ccc(Cl)cc1)c1c(N)ncnc1N
dose: 100.0 mg/kg/injection, schedule: Q04DX003 (ip), vehicle: saline with Tween-80
  T/C: 100 % of control
dose: 200.0 mg/kg/injection, schedule: Q04DX003 (ip), vehicle: saline with Tween-80
  T/C: 100 % of control
dose: 400.0 mg/kg/injection, schedule: Q04DX003 (ip), vehicle: saline with Tween-80
  T/C: 100 % of control
